The subject of assay [1] is U-251. The experiment in a line: Cytotoxicity against human U-251MG cells assessed as reduction in cell viability measured after 48 hrs by alamar blue assay. In kind it is functional, cell-based. The conditions noted are these: U-251, 48 h.
For assay [2], the system named is U-251. Kind of assay: Cytotoxicity against cold atmospheric plasma (CAP)-treated human U-251MG cells assessed as decrease in cell viability treated with CAP for 30 secs followed by incubated with compound for 48 hrs by alamar blue assay. It is filed as functional, cell-based. As to conditions: U-251, 48 h.
The test system of assay [3] is U-251. The experiment in a line: Prodrug activation in human U-251MG cells assessed as enhancement of cytotoxicity pretreated with prodrug followed by cold atmospheric plasma (CAP) treatment for 10 to 40 sec in culture medium and measured after 48 hrs by alamar blur assay. In kind it is functional, cell-based.
In assay [4] the test system is U-251. Kind of assay: Cytotoxicity against cold atmospheric plasma (CAP)-treated human U-251MG cells assessed as decrease in cell viability treated with CAP for 15 secs followed by incubated with compound for 6 days by alamar blue assay. As to conditions: U-251, 144 h. In kind it is functional, cell-based.
The test system of assay [5] is U-251. Kind of assay: Cytotoxicity against human U-251MG cells assessed as decrease in cell viability incubated for 6 days by alamar blue assay. The conditions noted are these: U-251, 144 h. It is filed as functional, cell-based.
For assay [6], the system named is U-251. The experiment in a line: Cytotoxicity against cold atmospheric plasma (CAP)-treated human U-251MG cells assessed as decrease in cell viability treated with CAP for 30 secs followed by incubated with compound for 6 days by alamar blue assay. It is filed as functional, cell-based. The conditions noted are these: U-251, 144 h.
In assay [7] the test system is U-251. Kind of assay: Cytotoxicity against human U-251MG cells assessed as decrease in cell viability by measuring combination index treated with cold atmospheric plasma for 30 secs followed by incubated with compound for 48 hrs by alamar blue assay. In kind it is functional.
Assay [8] in a line: Prodrug activation in human U-251MG cells assessed as increase in cold atmospheric plasma (CAP) induced ROS-mediated cytotoxicity treated with CAP for 40 secs followed by incubated with compound for 48 hrs by alamar blue assay. In kind it is functional, cell-based. As to conditions: U-251, 48 h.
Assay [9] can be described thus: Prodrug activation in human U-251MG cells assessed as increase in cold atmospheric plasma (CAP) induced ROS-mediated cytotoxicity treated with CAP for 10 mins in DMSO followed by incubated with compound for 48 hrs by alamar blue assay. In kind it is functional, cell-based.
The subject of assay [10] is U-251. The experiment in a line: Cytotoxicity against human U-251MG cells assessed as decrease in live cells stained with green (Calcein-AM) at 0.3 to 2000 uM measured after 48 hrs by Live/dead staining based fluorescent analysis. In kind it is functional, cell-based. As to conditions: dose 0.3-2000 µM.
Assay [11] in a line: Prodrug activation in human HEK293 cells assessed as decrease in cell viability at low concentrations in presence of AAPH measured after 48 hrs by Alamar blue assay. It is filed as functional.
Assay [12] deals with U-251. Kind of assay: Prodrug activation in human U-251MG cells assessed as enhancement of cytotoxicity at >200 uM combined with 0.5 mMAAPH measured after 48 hrs by Alamar blue assay. In kind it is functional, cell-based. The conditions noted are these: dose microM >200, time 48.0 hrs.
Assay [13] is described as follows: Prodrug activation in human U-251MG cells assessed as decrease in cell viability at low concentrations in presence of AAPH measured after 48 hrs by Alamar blue assay. It is filed as functional.
For assay [14], the system named is U-251. The experiment in a line: Cytotoxicity against human U-251MG cells assessed as reduction in cell viability at 290 uM measured after 48 hrs by alamar blue assay relative to control. In kind it is functional.
In assay [15] the test system is HEK293. The experiment in a line: Prodrug activation in human HEK293 cells assessed as enhancement of cytotoxicity at >200 uM combined with 0.5 mM AAPH measured after 48 hrs by Alamar blue assay. It is filed as functional, cell-based. As to conditions: dose microM >200, time 48.0 hrs.
The subject of assay [16] is U-251. Kind of assay: Cytotoxicity against human U-251MG cells assessed as decrease in cell viability by measuring combination index treated with cold atmospheric plasma for 10 secs followed by incubated with compound for 48 hrs by alamar blue assay. It is filed as functional.
Assay [17] is described as follows: Prodrug activation in human U-251MG cells assessed as increase in cold atmospheric plasma (CAP) induced ROS-mediated cytotoxicity treated with CAP for 30 secs followed by incubated with compound for 48 hrs by alamar blue assay. In kind it is functional, cell-based. The conditions noted are these: U-251, 48 h.
Assay [18] deals with U-251. The experiment in a line: Cytotoxicity against human U-251MG cells assessed as decrease in cell viability by measuring combination index treated with cold atmospheric plasma for 40 secs followed by incubated with compound for 48 hrs by alamar blue assay. It is filed as functional.
Assay [19] concerns U-251. The experiment in a line: Cytotoxicity against human U-251MG cells assessed as increase in dead cells stained with red (EthD-1) at 0.3 to 2000 uM measured after 48 hrs by Live/dead staining based fluorescent analysis. It is filed as functional, cell-based. The conditions noted are these: dose 0.3-2000 µM.
Assay [20] concerns U-251. Kind of assay: Cytotoxicity against human U-251MG cells assessed as reduction in cell viability at 2000 uM measured after 48 hrs by alamar blue assay relative to control. In kind it is functional.
Assay [21] can be described thus: Prodrug activation in human U-251MG cells assessed as increase in cold atmospheric plasma (CAP) induced ROS-mediated cytotoxicity treated with CAP for 20 secs followed by incubated with compound for 48 hrs by alamar blue assay. It is filed as functional, cell-based. As to conditions: U-251, 48 h.
Assay [22] concerns U-251. Kind of assay: Cytotoxicity against human U-251MG cells assessed as reduction in cell viability at 0.3 uM measured after 48 hrs by alamar blue assay relative to control. It is filed as functional.
The nature of assay [23]: Prodrug activation in human U-251MG cells assessed as increase in cold atmospheric plasma (CAP) induced ROS-mediated cytotoxicity treated with CAP for 10 secs followed by incubated with compound for 48 hrs by alamar blue assay. The conditions noted are these: U-251, 48 h. In kind it is functional, cell-based.
The test system of assay [24] is U-251. Kind of assay: Prodrug activation in CAP treated human U-251MG cells assessed as cell cytotoxicity incubated with cold atmospheric plasma (CAP) treated culture medium for 0 to 5 hrs followed by incubation with fresh medium containing prodrug for 48 hrs by Alamar blue assay. It is filed as functional, cell-based.
Assay [25] deals with U-251. Kind of assay: Cytotoxicity against human U-251MG cells assessed as distinct morphological changes at 0.3 to 2000 uM measured after 48 hrs by Live/dead staining based fluorescent analysis. In kind it is functional, cell-based. As to conditions: dose 0.3-2000 µM.
Assay [26] can be described thus: Prodrug activation in human U-251MG cells assessed as increase in cold atmospheric plasma (CAP) induced ROS-mediated cytotoxicity treated with CAP for 40 secs followed by incubated with compound for 48 hrs in presence of NAC by alamar blue assay. The conditions noted are these: U-251, 48 h. In kind it is functional, cell-based.
Assay [27] relates to HEK293. Kind of assay: Prodrug activation in human HEK293 cells assessed as enhancement of cytotoxicity at >200 uM in presence of 3 mM AAPH measured after 48 hrs by Alamar blue assay. In kind it is functional, cell-based. As to conditions: dose microM >200, time 48.0 hrs.
Assay [28] can be described thus: Prodrug activation in human U-251MG cells assessed as increase in cold atmospheric plasma (CAP) induced ROS-mediated cytotoxicity treated with CAP for 30 secs in DMSO followed by incubated with compound for 48 hrs by alamar blue assay. It is filed as functional, cell-based. As to conditions: U-251, 48 h.
For assay [29], the system named is U-251. The experiment in a line: Cytotoxicity against human U-251MG cells assessed as decrease in cell viability by measuring combination index treated with cold atmospheric plasma for 20 secs followed by incubated with compound for 48 hrs by alamar blue assay. In kind it is functional.
Assay [30] relates to U-251. The experiment in a line: Prodrug activation in human U-251MG cells assessed as cell cytotoxicity treated with prodrug in overnight storage cold atmospheric plasma (CAP) activated culture medium for 48 hrs by Alamar blue assay. In kind it is functional, cell-based.
For assay [31], the system named is HEK293. Kind of assay: Cytotoxicity against human HEK293 cells assessed as reduction in cell viability measured after 48 hrs by alamar blue assay. It is filed as functional, cell-based. As to conditions: HEK293, 48 h.
In assay [32] the test system is U-251. Kind of assay: Prodrug activation in human U-251MG cells assessed as enhancement of cytotoxicity at >200 uM in presence of 3 mM AAPH measured after 48 hrs by Alamar blue assay. It is filed as functional, cell-based. As to conditions: dose microM >200, time 48.0 hrs.

The structures appear in SMILES notation. Activity calls are given as the source filed them. The calls are words filed in the database; no cut-off is given here.

The values below come from ChEMBL document CHEMBL4842349, “Enhanced pyrazolopyrimidinones cytotoxicity against glioblastoma cells activated by ROS-Generating cold atmospheric plasma” (Eur J Med Chem, 2021).

For the compound `COc1ccc(-c2cc(=O)n3nc(C(C)C)cc3[nH]2)cc1`, the IC50 in the assay on U-251 [1] was 197 µM; in the assay with U-251 [2], 127 µM.
With `O=c1cc(-c2ccccc2)[nH]c2cc(-c3ccc(F)cc3)nn12`, the 50% inhibitory concentration (IC50) in the assay on U-251 [1] amounted to 74.6 µM; in the assay on U-251 [2], 44.4 µM.
As for `Cc1ccc(-c2cc3[nH]c(-c4ccccc4)cc(=O)n3n2)cc1`, the IC50 in the assay with U-251 [1] came to 148 µM; in the assay with U-251 [2], 86.7 µM.
On the same counts, the results for `O=c1cc(-c2ccccc2)[nH]c2cc(-c3ccccc3)nn12` are 77.7 µM and 73.6 µM.
On to `CC(C)(C)c1cc2[nH]c(-c3cc(C(F)(F)F)cc(C(F)(F)F)c3)cc(=O)n2n1`, for which the concentration for half-maximal inhibition (IC50) in the assay on U-251 [1] stood at 367 µM; with U-251 [2], 462 µM.
Regarding `Cc1c(-c2ccccc2)[nH]c2cc(C(C)C)nn2c1=O`, the IC50 in the assay with U-251 [1] was determined as 137 µM; with U-251 [2], 86.3 µM.
In the same order, the values of `Cc1cc(C)cc(-c2cc(=O)n3nc(C(C)C)cc3[nH]2)c1` are 502 µM and 609 µM.
On the same counts, the results for `CC(C)c1cc2[nH]c(-c3cc(C(F)(F)F)cc(C(F)(F)F)c3)cc(=O)n2n1` are 42.9 µM and 19 µM.
Regarding `CC(C)c1cc2[nH]c(-c3ccc([N+](=O)[O-])cc3)cc(=O)n2n1`, the IC50 was 25.5 µM with U-251 [1] and 12.9 µM in the assay on U-251 [2].
On to `Cc1cc(C)cc(-c2cc(=O)n3nc(C)cc3[nH]2)c1`, for which the result with U-251 [3] was inactive.
In the case of `Cn1nnc2c(C(N)=O)ncn2c1=O` [TEMOZOLOMIDE], the IC50 with U-251 [4] was found to be 7.28 µM; in the assay with U-251 [5], 12.7 µM; in the assay on U-251 [6], 6.43 µM.
With `CC(C)(C)c1cc2[nH]c(C(C)(C)C)cc(=O)n2n1`, the IC50 in the assay on U-251 [1] came out at 941 µM; with U-251 [2], 62.4 µM.
As to `O=c1cc(-c2ccccc2)[nH]c2cc(-c3cccc(Cl)c3)nn12`, the IC50 stood at 23.3 µM in the assay on U-251 [1] and 38.2 µM with U-251 [2].
Regarding `COc1ccc(-c2cc(=O)n3nc(-c4ccccc4)cc3[nH]2)cc1`, the IC50 stood at 13.4 µM in the assay on U-251 [1] and 5670 µM with U-251 [2].
On the same counts, the results for `CCCCc1cc2[nH]c(-c3cc(C(F)(F)F)cc(C(F)(F)F)c3)cc(=O)n2n1` are 11.3 µM and 11.4 µM.
`Cc1cc2[nH]c(-c3ccccc3)cc(=O)n2n1`: the CI with U-251 [7] is 0.4756; in the assay with U-251 [16], 0.311; in the assay with U-251 [18] it was 0.578; with U-251 [29], 0.3352. Also, the half-maximal inhibitory concentration (IC50) was determined as 37.1 µM in assay [8]; 246 µM in assay [9]; 293 µM with U-251 [1]; 39.2 µM in [17]; 56.8 µM in the assay with U-251 [2]; 31.1 µM in assay [21]. Further, the IC50 was 54.4 µM in assay [23], 95.7 µM in assay [26], 215 µM in assay [28] and 123 µM in the assay with HEK293 [31]. Also, the outcome in the assay with U-251 [10], with U-251 [19] and in the assay on U-251 [25] was Active. Moreover, the Activity in assay [11] amounted to 50%; in assay [13] it was 50%; in the assay with U-251 [14] it was 50%; in the assay on U-251 [20] it was 10%; with U-251 [22], 100%. For the same compound, the result in the assay on U-251 [12], with HEK293 [15], in the assay on U-251 [24], in the assay with HEK293 [27], in the assay with U-251 [30] and with U-251 [32] was inactive.
